One data set concerns FASN. The data set is described as follows: Cholesterol conjugated Fasn-2314 in Tgfb activated Lx2 cells, Western blotting. The data set is classed as cell-based, human. The following applies: 1.5 uM, Tgfb 5 ng/ml. The method, then:
(§1) In the analysis of protein expression, cell lysates were homogenized in a RIPA buffer (25 mM Tris, pH 7.4 0.15 M NaCl 0.1% Tween 20) with 1:100 protease inhibitor (78442, Thermo Scientific). The lysates were denatured by boiling, separated on a 4 to 15% SDS/polyacrylamide gel electrophoresis gel (567-1094, Bio-Rad), and transferred to a nitrocellulose membrane (1704159, Bio-Rad). The membrane was blocked using TBS-T with 5% BSA for 1 hour at room temperature and incubated using p-SMAD3 (ab52903, Abcam), type I collagen (1310-30, Southern Biotech), and GAPDH (5174, Cell Signaling). The blot was further washed in TBS-T and incubated at room temperature with its corresponding secondary antibody for 30 minutes. Following another wash, the blot was incubated with ECL (32106, Thermo Scientific) and visualized with the ChemiDox XRS+ image-forming system.
Moreover, the protein level of Smad3 was also measured for untreated control, cholesterol conjugated non-targeting control, and cholesterol conjugated Fasn-2314. 1×10^6 of human Lx2 cells were plated in 10 cm2 plates and treated with 1.5 uM cholesterol conjugated Fasn-2314. 24 hrs post treatment Lx2 cells were activated with Tgfb (5 ng/ml) to induce fibrotic phenotype. 48 hrs post activation cells were harvested and processed for Western blotting analysis.
(A western blot detects proteins with antibodies after separation by electrophoresis.)

The test system of a further data set is LX2 human stellate cells. Put plainly: Tgf-β driven activation of LX2 human stellate cells with Fasn inhibitor. The data set is classed as cell-based. As to the method: In vitro screening of LX2 human stellate cells was executed by plating 500,000 cells/well in 6-well plates overnight at 37° C., 5% CO2 in 0% FBS DMEM medium (11885-076, Gibco). Following a 4-hour pre-treatment with 1 nM or 100 nM Fasn inhibitor (TVB-3664-S8563, Selleck Chemicals), stellate cell activation was initiated by adding recombinant human Tgf-β (240-B-002, R & D Systems) for a 5 ng/mL final concentration. After 48 hours, protein and mRNA were isolated from the cells and further analysis was performed.
Frozen liver tissue punches (25-50 mg) were homogenized in TRIzol (15596018, Thermo Scientific) using the Qiagen TissueLyser II. Chloroform was added to the homogenate and centrifuged for 15 minutes at maximum speed. The clear upper layer was added to an equal volume of 100% isopropanol and incubated for 1 h at 4° C. After 10 min of centrifugation at maximum speed, the supernatant was discarded, and 70 to 75% ethanol was added to wash the pellet. After 5 min of centrifugation at maximum speed, the supernatant was discarded, and the pellet was briefly dried in the hood prior to resuspension in double-distilled water. RNA concentration was measured via the Thermo Scientific NanoDrop2000 spectrophotometer. Complementary DNA was then synthesized from 1 μg of total RNA using iScript cDNA Synthesis Kit (1708890, Bio-Rad) and Bio-Rad T100 thermocycler. Quantitative RT-PCR was performed using iQ SybrGreen Supermix (4368708, Applied Biosystems) on the Bio-Rad CFX96 C1000 Touch Thermal Cycler and analyzed.
as §1
To investigate the role of palmitate production in stellate cell activation, LX2 human stellate cells were treated with a validated, potent and specific small molecule inhibitor of Fasn, TVB-3664, at a final concentration of either 1 nM or 100 nM for 4 hours. Cells were then subjected to 5 ng/mL Tgf-β, a strong stimulator of stellate cell activation. Forty-eight hours later, the morphology of activated stellate cells, with increased cell size and elongation of spindle-like structures, was easily observed in Tgf-β treated cells.

[1] abbreviates: LX2 cells, 1 nM or 100 nM, 4 hours, then 5 ng/mL Tgf-β, 48 hours.

Consider “FASN 2314: siRNA targeting human FASN; antisense SEQ ID NO: 56, TegChol sense SEQ ID NO: 57 (sense CCGAGUACAAUGUCAA; antisense UUGACAUUGUACUCGGCGGUU; sugars by position and backbone not given here; 2'-F/2'-OMe modifications not assigned, TegChol cholesterol on sense, further chemistry not fully specified)”, for which, in the data set on FASN, the “LC3II protein (autophagy)” value is given as “accumulation”; the “activation and collagen production in Tgfb treated stellate cells” value is “blunted”; the “p62 protein (autophagy)” value was “accumulation”; the “phosphorylation of SMAD3” value is given as “blunted”.
In the case of `COCc1[nH]c(C(F)(F)F)nc1-c1cc(C(=O)N2CC(c3ccc(C#N)cc3)C2)c(C)cc1C` [TVB-3664], in the data set on LX2 human stellate cells (setting [1]), the “Tgf-β-induced type 1 collagen protein expression” value is reported as “blocked”, the “mRNA levels of Acta2” value is on record as “reduction”, the “mRNA levels of Col1a1” value is “reduction” and the “morphological change of activated stellate cells” value is “severely inhibited”. The “phosphorylated SMAD3 protein” value in the data set with LX2 human stellate cells (setting [1]) is “reduced”. Also, in the data set on LX2 human stellate cells (Tgf-β activated LX2 cells), the Cpt1a gene expression result is on record as “reduction”, the Hsp47 gene expression entry is given as “reduction”, the Nrf2 gene expression entry is “remarkable upregulation” and the Pgc-1α gene expression entry is given as “remarkable upregulation”. In the data set on LX2 human stellate cells (Tgf-β activated LX2 cells), the Pparα gene expression entry is given as “remarkable upregulation”, the Sirt1 gene expression result is listed as “remarkable upregulation”, the anti-fibrotic effect result is “strong anti-fibrotic effect” and the “expression of Nox4” value is listed as “reduction in expression”.

For the origin of these results see US20250034575A1, “OLIGONUCLEOTIDES FOR DGAT2, FASN, OPN, AND NOX4 MODULATIONS” (UNIVERSITY OF MASSACHUSETTS, priority 2023, published 2025).
